Assay results taken from US20080213780A1, “MULTI-COLOR TIME RESOLVED FLUOROPHORES BASED ON MACROCYCLIC LANTHANIDE COMPLEXES” (Lumiphore, Inc., priority 2007, published 2008).
Several values for one entry are separate records, joined by “and”; a condition that tells them apart may be missing. Identical values can stand only once.

How the values were obtained:
[1] = Fluorescence lifetime decay (time-resolved) of the donor-acceptor conjugate; type: physicochemical; conditions: for long lifetime: excitation of BH22IAM and energy transfer to fluorescein: terbium complex, excited at BH22IAM absorption (~340 nm), fluorescein emission 520 nm
Excerpt: A short lifetime corresponding to the direct excitation of fluorescein (3.92 nsec) and a long lifetime corresponding to excitation of BH22IAM and energy transfer to fluorescein (524 nsec).
In another exemplary embodiment, the compounds of the invention emit light at an emission wavelength of the fluorophore attached to the metal chelate through the acceptor-linker. […] For example, compound 3, when coordinated to terbium and excited at a BH22IAM absorption wavelength (˜340 nm), the metal chelate emits at 520 nm, the characteristic wavelength of fluorescein with a lifetime of 524 nsec. The new lifetime is over 100-fold longer than the lifetime for a fluorescein solution that is directly excited (<5 nsec).
The 524 nsec of the conjugated fluorescein is acquired through direct excitation of the Tb-BH22IAM complex at 340 nm, which normally has a very long lifetime (2.6 msec), followed by energy transfer to the conjugated fluorescein and emission at the characteristic wavelength for fluorescein (520 nm).

[2] = Steady-state absorption and emission spectra; type: physicochemical; conditions: for emission wavelength / emission maxima: excited at BH22IAM absorption wavelength (~340 nm)
Excerpt: FIG. 8 is a steady-state absorption spectrum of FITC-BH22IAM conjugate.

SMILES | long lifetime: excitation of BH22IAM and energy transfer to fluorescein [1] | absorption maximum (BH22IAM) [2] | absorption maximum (fluorescein) [2] | emission wavelength / emission maxima [2] | lifetime relative to a directly excited fluorescein solution ([1]; 524 nsec versus <5 nsec)
O=C(O)c1cc(NC(=S)NCCCCC2CN3CCNC(=O)c4cccc(c4O)C(=O)NCCN(CCNC(=O)c4cccc(c4O)C(=O)N2)CCN2CCNC(=O)c4cccc(c4O)C(=O)NCCN(CCNC(=O)c4cccc(c4O)C(=O)NCC2)CC3)ccc1-c1c2ccc(=O)cc-2oc2cc(O)ccc12 (stereo not shown) [4a] | 520 nsec and 524 nsec | 340 nm | 490 nm | 519 nm and 520 nm | 
O=C(O)c1cc(NC(=S)NCCCCC2CN3CCNC(=O)c4cccc(c4O)C(=O)NCCN(CCNC(=O)c4cccc(c4O)C(=O)N2)CCN2CCNC(=O)c4cccc(c4O)C(=O)NCCN(CCNC(=O)c4cccc(c4O)C(=O)NCC2)CC3)ccc1-c1c2ccc(=O)cc-2oc2cc(O)ccc12 (stereo not shown) [compound 3] | 524 nsec |  |  | 520 nm | over 100 fold
